Experimental data published in ChEMBL document CHEMBL3885861, “Open TG-GATES”.

Species: Rattus norvegicus
Experiment: Open TG-GATES - Regimen: Single
Format: toxicity, organism-based, Sprague-Dawley
Design: regimen Single, gender Male, age 6 weeks
Conditions: in vivo, po, 30 mg/kg, route gavage, dose level High; for APTT / Bas / Eos / Fbg / Hb / Ht / Lym / MCH / MCHC / MCV / Mono / Neu / PT / Plat / RBC / Ret / WBC: tissue Blood; for KIDNEY_L / KIDNEY_R / KIDNEY_TOTAL: tissue Kidney; for LIVER: tissue Liver; for A/G / ALP / ALT / AST / BUN / CRE / Ca / Cl / DBIL / GLC / IP / K / LDH / Na / PL / RALB / TBIL / TC / TG / TP / gamma-GTP: tissue Plasma

Nc1c2c(nc3ccccc13)CCCC2 [TACRINE]
TERMINAL_BW (3 h): 205 g | APTT (3 h): 21.4 s | Bas (3 h): 0% | Eos (3 h): 0.6% | Fbg (3 h): 313.8 mg/dL | Hb (3 h): 13.4 g/dL | Ht (3 h): 39.4% | Lym (3 h): 71% | MCH (3 h): 21.4 pg | MCHC (3 h): 34.1% | MCV (3 h): 62.7 fL | Mono (3 h): 2.6% | Neu (3 h): 25% | PT (3 h): 16.4 s | Plat (3 h): 124.7 x10_4/uL | RBC (3 h): 628.2 x10_4/ul | Ret (3 h): 8.7% | WBC (3 h): 55.6 x10_2/uL | KIDNEY_L (3 h): 0.9 g | KIDNEY_R (3 h): 0.9 g | KIDNEY_TOTAL (3 h): 1.9 g | LIVER (3 h): 9 g | A/G (3 h): 1.3 | ALP (3 h): 1523.2 IU/L | ALT (3 h): 49.8 IU/L | AST (3 h): 152.2 IU/L | BUN (3 h): 12.6 mg/dL | CRE (3 h): 0.2 mg/dL | Ca (3 h): 10.4 mg/dL | Cl (3 h): 103.8 meq/L | DBIL (3 h): 0 mg/dL | GLC (3 h): 269.6 mg/dL | IP (3 h): 9.9 mg/dL | K (3 h): 3.6 meq/L | LDH (3 h): 369.4 IU/L | Na (3 h): 139.2 meq/L | PL (3 h): 142.6 mg/dL | RALB (3 h): 3.2 g/dL | TBIL (3 h): 0.022 mg/dL | TC (3 h): 78 mg/dL | TG (3 h): 69.8 mg/dL | TP (3 h): 5.7 g/dL | gamma-GTP (3 h): 1.2 IU/L | TERMINAL_BW (6 h): 199.4 g | APTT (6 h): 20.8 s | Bas (6 h): 0% | Eos (6 h): 0.4% | Fbg (6 h): 327.2 mg/dL | Hb (6 h): 14 g/dL | Ht (6 h): 40.4% | Lym (6 h): 67% | MCH (6 h): 21.1 pg | MCHC (6 h): 34.6% | MCV (6 h): 61 fL | Mono (6 h): 3% | Neu (6 h): 29% | PT (6 h): 15.7 s | Plat (6 h): 124.5 x10_4/uL | RBC (6 h): 662.6 x10_4/ul | Ret (6 h): 7.7% | WBC (6 h): 64.5 x10_2/uL | KIDNEY_L (6 h): 0.9 g | KIDNEY_R (6 h): 0.9 g | KIDNEY_TOTAL (6 h): 1.8 g | LIVER (6 h): 8.9 g | A/G (6 h): 1.2 | ALP (6 h): 1476.6 IU/L | ALT (6 h): 51.8 IU/L | AST (6 h): 199.8 IU/L | BUN (6 h): 13.4 mg/dL | CRE (6 h): 0.2 mg/dL | Ca (6 h): 10.6 mg/dL | Cl (6 h): 106.4 meq/L | DBIL (6 h): 0 mg/dL | GLC (6 h): 221.4 mg/dL | IP (6 h): 9.3 mg/dL | K (6 h): 3.9 meq/L | LDH (6 h): 347.2 IU/L | Na (6 h): 142 meq/L | PL (6 h): 146.4 mg/dL | RALB (6 h): 3.3 g/dL | TBIL (6 h): 0.02 mg/dL | TC (6 h): 81.6 mg/dL | TG (6 h): 45.4 mg/dL | TP (6 h): 6 g/dL | gamma-GTP (6 h): 1 IU/L | TERMINAL_BW (9 h): 202.2 g | APTT (9 h): 21 s | Bas (9 h): 0% | Eos (9 h): 0.4% | Fbg (9 h): 339.6 mg/dL | Hb (9 h): 13.4 g/dL | Ht (9 h): 38.9% | Lym (9 h): 53% | MCH (9 h): 21 pg | MCHC (9 h): 34.3% | MCV (9 h): 61.3 fL | Mono (9 h): 3% | Neu (9 h): 43% | PT (9 h): 15.6 s | Plat (9 h): 128.9 x10_4/uL | RBC (9 h): 634.8 x10_4/ul | Ret (9 h): 8.3% | WBC (9 h): 78.6 x10_2/uL | KIDNEY_L (9 h): 0.9 g | KIDNEY_R (9 h): 0.9 g | KIDNEY_TOTAL (9 h): 1.8 g | LIVER (9 h): 8.4 g | A/G (9 h): 1.3 | ALP (9 h): 1511.6 IU/L | ALT (9 h): 64.4 IU/L | AST (9 h): 283 IU/L | BUN (9 h): 11.6 mg/dL | CRE (9 h): 0.2 mg/dL | Ca (9 h): 10.7 mg/dL | Cl (9 h): 106.2 meq/L | DBIL (9 h): 0.004 mg/dL | GLC (9 h): 222.6 mg/dL | IP (9 h): 9 mg/dL | K (9 h): 3.8 meq/L | LDH (9 h): 264.6 IU/L | Na (9 h): 141.4 meq/L | PL (9 h): 160.2 mg/dL | RALB (9 h): 3.3 g/dL | TBIL (9 h): 0.012 mg/dL | TC (9 h): 84 mg/dL | TG (9 h): 42.2 mg/dL | TP (9 h): 5.9 g/dL | gamma-GTP (9 h): 1 IU/L | TERMINAL_BW (24 h): 192.1 g | APTT (24 h): 20.8 s | Bas (24 h): 0% | Eos (24 h): 1% | Fbg (24 h): 351.6 mg/dL | Hb (24 h): 14.3 g/dL | Ht (24 h): 40.9% | Lym (24 h): 84.4% | MCH (24 h): 21.3 pg | MCHC (24 h): 34.8% | MCV (24 h): 61.2 fL | Mono (24 h): 2.2% | Neu (24 h): 12.4% | PT (24 h): 16.1 s | Plat (24 h): 130.3 x10_4/uL | RBC (24 h): 668.8 x10_4/ul | Ret (24 h): 6.7% | WBC (24 h): 68.9 x10_2/uL | KIDNEY_L (24 h): 0.9 g | KIDNEY_R (24 h): 0.9 g | KIDNEY_TOTAL (24 h): 1.8 g | LIVER (24 h): 7.7 g | A/G (24 h): 1.3 | ALP (24 h): 1513.8 IU/L | ALT (24 h): 44.4 IU/L | AST (24 h): 121.6 IU/L | BUN (24 h): 15 mg/dL | CRE (24 h): 0.2 mg/dL | Ca (24 h): 10.8 mg/dL | Cl (24 h): 107.8 meq/L | DBIL (24 h): 0.008 mg/dL | GLC (24 h): 187.6 mg/dL | IP (24 h): 8.8 mg/dL | K (24 h): 4.2 meq/L | LDH (24 h): 259.6 IU/L | Na (24 h): 142.2 meq/L | PL (24 h): 140.4 mg/dL | RALB (24 h): 3.2 g/dL | TBIL (24 h): 0.042 mg/dL | TC (24 h): 88.6 mg/dL | TG (24 h): 31.6 mg/dL | TP (24 h): 5.8 g/dL | gamma-GTP (24 h): 1 IU/L
